Tests used:
[1] = molecular target: T1, human TASK-1 (Homo sapiens, UniProt O14649); assay: Whole-cell patch clamp on tsA201 cells expressing cloned human TASK-1; format: cell-based
T1 construct: expressed in transfected cells; host or cells: tsA201 (modified HEK293), transient transfection, pcDNA3.1+
Procedure: (§1) Murine (mur) wild‐type (WT) TASK‐1 (KCNK3, Genbank^TM DQ185133) and WT murTASK‐3 (KCNK9, Genbank^TM AH009585.2) cDNA were cloned into pCS2^+ vector and were a kind gift from William Wisden (Imperial College, UK). Human WT TASK‐1 (Genbank^TM AF006823.1), WT TASK‐3 (Genbank^TM AF212829) and WT TASK‐2 (KCNK5, Genbank^TM AF084830.1) cDNA’s, were cloned into pcDNA3.1^+ vector (Invitrogen) and were a kind gift from Helen Meadows (GlaxoSmithKline).
(§2) All experiments were performed using a modified human embryonic kidney 293 cell line, tsA201 (ECACC; Sigma‐Aldrich), prepared and maintained as previously described.54
(§3) For the electrophysiological experiments, cells were transiently transfected using a modified calcium phosphate protocol, following a process as previously described.54 Vectors cloned with the gene of interest and a similar vector encoding the cDNA for GFP were added to each well at a concentration of 0.5 µg per well, with the exception being for murTASK‐3, where 0.125 µg per well was used.
(§4) Currents were recorded from tsA201 cells transiently transfected with the channel of interest using whole‐cell patch clamp in a voltage clamp configuration and a step‐ramp voltage protocol as previously described.54 Briefly, all experiments were conducted at room temperature (20‐24°C) using an external solution composed of 145 mM of NaCl, 2.5 mM of KCL, 3 mM of MgCl2, 1 mM of CaCl2 and 10 mM of HEPES (pH 7.4, using NaOH) and an intracellular pipette solution composed of 150 mM of KCL, 3 mM of MgCl2, 5 mM of EGTA and 10 mM of HEPES (pH adjusted to 7.4 with KOH). External solution and modulatory compounds were superfused at a rate of 4‐5 mL min^−1. Currents were recorded using an Axopatch 1D patch clamp amplifier (Molecular Devices), filtered at 0.3 kHz, digitized at 1 kHz.
(§5) For analysis of outward current, we measured the current difference between the −80 and −40 mV. The current‐voltage graphs were obtained from the ramp change in voltage between −120 and +20 mV. For each cell, the current amplitude (pA) was normalized to the cell capacitance (pF). The currents obtained were analysed using pCLAMP 10.2 software (Molecular Devices), Microsoft Excel and GraphPad Prism 6 or 7 software. Data were expressed as the mean ± 95% Confidence Intervals (CI), and n represents the number of individual cells. For EC50 calculations, concentration‐response curves were fitted using the Hill equation. Statistical analysis used were one‐way ANOVA with a post‐hoc Dunnett's test or an unpaired/paired Student's t test. Data were considered statistically different if P < .05. The data and statistical analysis comply with the recommendations on experimental design and analysis in pharmacology.55

[2] = molecular target: T2, human TASK-3 (Homo sapiens, UniProt Q9NPC2); assay: Whole-cell patch clamp on tsA201 cells expressing cloned human TASK-3; format: cell-based
T2 construct: expressed in transfected cells; host or cells: tsA201 (modified HEK293), transient transfection, pcDNA3.1+
T2 sequence (Q9NPC2 whole entry): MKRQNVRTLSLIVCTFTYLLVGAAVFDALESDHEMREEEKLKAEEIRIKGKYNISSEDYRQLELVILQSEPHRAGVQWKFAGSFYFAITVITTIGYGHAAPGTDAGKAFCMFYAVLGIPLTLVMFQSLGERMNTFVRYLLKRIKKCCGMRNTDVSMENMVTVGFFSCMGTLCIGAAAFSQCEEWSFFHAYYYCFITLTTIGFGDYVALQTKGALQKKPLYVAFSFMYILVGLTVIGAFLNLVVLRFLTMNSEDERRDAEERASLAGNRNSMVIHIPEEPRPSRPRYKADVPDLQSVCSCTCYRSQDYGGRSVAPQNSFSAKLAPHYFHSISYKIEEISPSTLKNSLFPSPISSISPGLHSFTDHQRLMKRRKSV
Procedure: as §1, §2, §3, §4, §5

[3] = molecular target: T3, human TASK-2 (Homo sapiens, UniProt O95279); assay: Whole-cell patch clamp on tsA201 cells expressing cloned human TASK-2; format: cell-based; settings: acute application, read-out: inhibition of WT TASK-2 current
T3 construct: expressed in transfected cells; host or cells: tsA201 (modified HEK293), transient transfection, pcDNA3.1+
T3 sequence (O95279 1-499): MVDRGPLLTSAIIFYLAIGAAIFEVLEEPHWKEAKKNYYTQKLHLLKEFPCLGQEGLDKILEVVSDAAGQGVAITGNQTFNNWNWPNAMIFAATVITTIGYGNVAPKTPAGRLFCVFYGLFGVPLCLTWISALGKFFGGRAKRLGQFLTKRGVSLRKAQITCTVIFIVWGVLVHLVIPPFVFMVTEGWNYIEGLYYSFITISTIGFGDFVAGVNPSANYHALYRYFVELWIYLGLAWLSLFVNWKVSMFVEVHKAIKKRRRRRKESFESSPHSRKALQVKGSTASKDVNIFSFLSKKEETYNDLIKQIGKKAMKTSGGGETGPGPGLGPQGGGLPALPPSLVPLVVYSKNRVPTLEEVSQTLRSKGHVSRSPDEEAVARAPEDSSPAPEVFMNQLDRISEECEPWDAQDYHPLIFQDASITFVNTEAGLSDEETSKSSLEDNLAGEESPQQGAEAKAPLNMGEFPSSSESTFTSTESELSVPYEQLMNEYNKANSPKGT
Procedure: as §1
(§6) All experiments were performed using a modified human embryonic kidney 293 cell line, tsA201 (ECACC; Sigma‐Aldrich), prepared and maintained as previously described.54 […]
as §4, with “External solution and modulatory compounds were superfused at a rate of 4‐5 mL min^−1.” left out
(§7) For analysis of outward current, we measured the current difference between the −80 and −40 mV. […]

[4] = molecular target: T4, murTASK-1 (Mus musculus, UniProt O35111); assay: Whole-cell patch clamp on tsA201 cells expressing cloned mouse TASK-1; format: cell-based
T4 construct: expressed in transfected cells; host or cells: tsA201 (modified HEK293), transient transfection, pCS2+
T4 sequence (O35111 whole entry): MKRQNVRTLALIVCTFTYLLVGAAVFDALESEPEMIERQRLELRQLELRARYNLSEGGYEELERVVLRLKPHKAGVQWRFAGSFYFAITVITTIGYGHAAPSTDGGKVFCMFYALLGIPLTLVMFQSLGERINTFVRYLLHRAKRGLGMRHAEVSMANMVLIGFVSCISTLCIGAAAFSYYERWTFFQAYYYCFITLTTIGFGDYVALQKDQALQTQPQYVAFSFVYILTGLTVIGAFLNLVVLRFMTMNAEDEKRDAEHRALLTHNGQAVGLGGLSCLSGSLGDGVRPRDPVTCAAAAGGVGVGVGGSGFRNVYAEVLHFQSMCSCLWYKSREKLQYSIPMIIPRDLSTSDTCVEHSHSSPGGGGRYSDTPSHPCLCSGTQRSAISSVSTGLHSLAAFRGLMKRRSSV
Procedure: as §1, §2, §3, §4, §5

[5] = molecular target: T5, murTASK-3 (Mus musculus, UniProt Q3LS21); assay: Whole-cell patch clamp on tsA201 cells expressing cloned mouse TASK-3; format: cell-based
T5 construct: expressed in transfected cells; host or cells: tsA201 (modified HEK293), transient transfection, pCS2+
T5 sequence (Q3LS21 whole entry): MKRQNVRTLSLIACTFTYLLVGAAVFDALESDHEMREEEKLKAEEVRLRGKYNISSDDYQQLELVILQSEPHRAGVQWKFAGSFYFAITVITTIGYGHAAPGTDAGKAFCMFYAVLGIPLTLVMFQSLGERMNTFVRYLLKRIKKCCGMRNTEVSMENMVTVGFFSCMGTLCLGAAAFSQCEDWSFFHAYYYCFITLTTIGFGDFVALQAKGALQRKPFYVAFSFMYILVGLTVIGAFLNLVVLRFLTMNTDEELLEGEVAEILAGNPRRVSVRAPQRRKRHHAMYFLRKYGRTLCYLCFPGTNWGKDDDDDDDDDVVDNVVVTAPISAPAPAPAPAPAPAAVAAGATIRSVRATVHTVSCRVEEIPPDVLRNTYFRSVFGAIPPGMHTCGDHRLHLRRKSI
Procedure: as §1, §2, §3, §4, §5

[6] = molecular target: T6, murTASK-3/murTASK-1 heterodimer channels (Mus musculus, UniProt O35111+Q3LS21); assay: Whole-cell patch clamp, forced heterodimer murTASK-3/murTASK-1; format: cell-based
T6 construct: expressed in transfected cells; host or cells: tsA201 (modified HEK293), transient transfection
T6 sequence (Q3LS21 whole entry): as above
T6 sequence (O35111 whole entry): as the sequence (O35111 whole entry) above
Procedure: as §1, §6
as §4, with “External solution and modulatory compounds were superfused at a rate of 4‐5 mL min^−1.” left out
as §7

[7] = molecular target: T7, murTASK-1/murTASK-3 heterodimer channels (Mus musculus, UniProt O35111+Q3LS21); assay: Whole-cell patch clamp, forced heterodimer murTASK-1/murTASK-3; format: cell-based
T7 construct: expressed in transfected cells; host or cells: tsA201 (modified HEK293), transient transfection
T7 sequence (O35111 whole entry): as above
T7 sequence (Q3LS21 whole entry): as the sequence (Q3LS21 whole entry) above
Procedure: as §1, §6
as §4, with “External solution and modulatory compounds were superfused at a rate of 4‐5 mL min^−1.” left out
as §7

[8] = molecular target: T8, murT3_Δ250 (Mus musculus, UniProt Q3LS21); assay: Whole-cell patch clamp, C-terminally truncated mouse TASK-3; format: cell-based
T8 construct: Removal of the carboxy terminal of murTASK‐3 (murT3) attenuates doxapram effect further; expressed in transfected cells; host or cells: tsA201 (modified HEK293), transient transfection
T8 sequence (Q3LS21 1-249 limits assumed, stated change not applied): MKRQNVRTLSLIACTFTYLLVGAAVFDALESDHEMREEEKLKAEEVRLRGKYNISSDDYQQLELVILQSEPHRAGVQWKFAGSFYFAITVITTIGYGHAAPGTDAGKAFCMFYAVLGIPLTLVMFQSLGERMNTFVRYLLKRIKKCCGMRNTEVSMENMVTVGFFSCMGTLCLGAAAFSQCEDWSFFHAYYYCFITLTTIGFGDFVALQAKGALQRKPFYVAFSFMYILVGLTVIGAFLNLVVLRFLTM
Description: as §1
(§8) Point mutations (L122D, G236D, L239D, V242D or a stop codon) were introduced by site‐directed mutagenesis into TASK‐3 cDNA using the Quikchange kit (Stratagene) as previously described.54 […]
as §4, with “External solution and modulatory compounds were superfused at a rate of 4‐5 mL min^−1.” left out, “kHz. […]” for “kHz.”

[9] = molecular target: T9, hTASK-3_Δ250 (Homo sapiens, UniProt Q9NPC2); assay: Whole-cell patch clamp, C-terminally truncated human TASK-3; format: cell-based
T9 construct: truncating the channel to remove the C‐terminal of the human TASK‐3 channel (hTASK‐3_Δ250); expressed in transfected cells; host or cells: tsA201 (modified HEK293), transient transfection
T9 sequence (Q9NPC2 1-249 limits assumed, stated change not applied): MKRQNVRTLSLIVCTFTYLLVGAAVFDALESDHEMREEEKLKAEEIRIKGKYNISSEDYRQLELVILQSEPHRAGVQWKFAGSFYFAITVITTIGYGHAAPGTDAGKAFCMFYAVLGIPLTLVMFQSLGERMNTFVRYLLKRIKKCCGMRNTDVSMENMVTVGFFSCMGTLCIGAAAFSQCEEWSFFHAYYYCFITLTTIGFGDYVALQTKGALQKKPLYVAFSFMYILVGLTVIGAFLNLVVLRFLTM
Description: as §1, §8
as §4, with “External solution and modulatory compounds were superfused at a rate of 4‐5 mL min^−1.” left out, “kHz. […]” for “kHz.”

[10] = molecular target: T10, TASK-3_L122D (Homo sapiens, UniProt Q9NPC2, L122D); assay: Whole-cell patch clamp, human TASK-3 pore mutant L122D; format: cell-based; settings: 10 µM (Figure 6C); read-out: percentage inhibition of TASK-3_L122D
T10 construct: expressed in transfected cells; host or cells: tsA201 (modified HEK293), transient transfection
T10 sequence (Q9NPC2 whole entry L122D): as the sequence (Q9NPC2 whole entry) above, with L122D counted along it
Description: as §1, §8
as §4, with “External solution and modulatory compounds were superfused at a rate of 4‐5 mL min^−1.” left out, “kHz. […]” for “kHz.”

[11] = molecular target: T11, TASK-3_G236D (Homo sapiens, UniProt Q9NPC2, G236D); assay: Whole-cell patch clamp, human TASK-3 pore mutant G236D; format: cell-based; settings: 10 µM (Figure 6C); read-out: percentage inhibition of TASK-3_G236D
T11 construct: expressed in transfected cells; host or cells: tsA201 (modified HEK293), transient transfection
T11 sequence (Q9NPC2 whole entry G236D): as the sequence (Q9NPC2 whole entry) above, with G236D counted along it
Description: as §1, §8
as §4, with “External solution and modulatory compounds were superfused at a rate of 4‐5 mL min^−1.” left out, “kHz. […]” for “kHz.”

[12] = molecular target: T12, TASK-3_L239D (Homo sapiens, UniProt Q9NPC2, L239D); assay: Whole-cell patch clamp, human TASK-3 pore mutant L239D; format: cell-based; settings: 10 µM (Figure 6C); read-out: percentage inhibition of TASK-3_L239D
T12 construct: expressed in transfected cells; host or cells: tsA201 (modified HEK293), transient transfection
T12 sequence (Q9NPC2 1-374 L239D): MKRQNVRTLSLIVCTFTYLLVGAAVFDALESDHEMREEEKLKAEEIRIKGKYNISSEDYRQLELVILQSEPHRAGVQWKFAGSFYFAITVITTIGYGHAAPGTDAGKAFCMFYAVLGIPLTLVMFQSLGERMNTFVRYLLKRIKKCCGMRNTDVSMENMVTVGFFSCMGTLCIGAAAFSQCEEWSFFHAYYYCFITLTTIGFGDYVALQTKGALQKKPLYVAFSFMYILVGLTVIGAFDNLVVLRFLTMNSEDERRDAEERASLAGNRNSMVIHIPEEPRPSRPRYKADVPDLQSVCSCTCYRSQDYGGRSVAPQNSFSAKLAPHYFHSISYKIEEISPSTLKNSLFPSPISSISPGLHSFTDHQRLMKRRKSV
Description: as §1, §8
as §4, with “External solution and modulatory compounds were superfused at a rate of 4‐5 mL min^−1.” left out, “kHz. […]” for “kHz.”

[13] = molecular target: T13, TASK-3_V242D (Homo sapiens, UniProt Q9NPC2, V242D); assay: Whole-cell patch clamp, human TASK-3 pore mutant V242D; format: cell-based; settings: 10 µM (Figure 6C); read-out: percentage inhibition of TASK-3_V242D
T13 construct: expressed in transfected cells; host or cells: tsA201 (modified HEK293), transient transfection
T13 sequence (Q9NPC2 whole entry V242D): as the sequence (Q9NPC2 whole entry) above, with V242D counted along it
Description: as §1, §8
as §4, with “External solution and modulatory compounds were superfused at a rate of 4‐5 mL min^−1.” left out, “kHz. […]” for “kHz.”

[14] = tested on: rat TASK-1 homodimeric channels; settings: cited from earlier work
[15] = tested on: rat TASK-1/TASK-3 heterodimeric channels; settings: cloned rat channels; cited from earlier work
[16] = tested on: rat TASK-3 homodimeric channels; settings: cloned rat channels; cited from earlier work
[17] = concentration-response 0.3-100 µM

T1 sequence (O14649 whole entry): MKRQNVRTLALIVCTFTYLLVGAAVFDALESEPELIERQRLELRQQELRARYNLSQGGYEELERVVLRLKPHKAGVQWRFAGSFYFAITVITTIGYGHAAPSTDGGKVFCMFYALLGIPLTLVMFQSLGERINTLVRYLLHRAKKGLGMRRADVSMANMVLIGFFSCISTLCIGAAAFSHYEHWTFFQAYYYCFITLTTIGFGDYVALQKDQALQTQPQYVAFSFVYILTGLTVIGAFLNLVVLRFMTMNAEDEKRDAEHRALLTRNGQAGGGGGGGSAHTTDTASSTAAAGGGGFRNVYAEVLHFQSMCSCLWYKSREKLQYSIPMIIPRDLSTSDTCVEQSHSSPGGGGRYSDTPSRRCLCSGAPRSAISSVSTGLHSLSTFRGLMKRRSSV

CCN1CC(CCN2CCOCC2)C(c2ccccc2)(c2ccccc2)C1=O (centres unmarked) [doxapram, 1‐ethyl‐4‐(2‐morpholinoethyl)‐3,3‐diphenyl‐2‐pyrrolidinone]
recovery from inhibition of TASK-1 ([1]; 10 µM, washout): slow and mostly incomplete | Hill slope, human TASK-1 [1, 17]: 0.8 | inhibition at 10 µM ([1]; tsA201, 10 µM, acute application, read-out: inhibition of human TASK-1 current): 55% | EC50 ([1]; tsA201 cells, whole-cell patch clamp, room temperature, read-out: EC50, inhibition of human TASK-1 current): 4 µM | inhibition of human TASK-3 current ([2]; 10 µM, acute application, WT): 62% | recovery from inhibition of TASK-3 ([2]; 10 µM, washout): faster and more complete | Hill slope, human TASK-3 [2, 17]: 0.8 | inhibition at 10 µM ([2]; tsA201, 10 µM, acute application, WT, read-out: inhibition of human TASK-3 current): 68% | EC50 ([2]; tsA201 cells, whole-cell patch clamp, room temperature, read-out: EC50, inhibition of human TASK-3 current): 2.5 µM | inhibition at 10 µM [3]: 7% | EC50 ([4]; calculated from concentration-response curve, read-out: 50% effective concentration, murTASK-1): 1.5 µM | inhibition at 1 µM ([4]; tsA201, 1 µM, acute application, read-out: current inhibition of murTASK-1): 28% | inhibition at 3 µM ([4]; tsA201, 3 µM, acute application, read-out: current inhibition of murTASK-1): 43% | inhibition at 10 µM ([4]; tsA201, 10 µM, acute application, read-out: current inhibition of murTASK-1): 58% | EC50 ([5]; estimated, read-out: 50% effective concentration, murTASK-3): ≥ 100 µM | inhibition at 10 µM ([5]; tsA201, 10 µM, acute application, read-out: current inhibition of murTASK-3): 21% | inhibition at 100 µM ([5]; tsA201, 100 µM, acute application, read-out: current inhibition of murTASK-3): 56% | inhibition at 10 µM [6]: 42% | inhibition at 10 µM [7]: 58% | inhibition at 10 µM [8]: 4% | inhibition at 10 µM [9]: 19% | inhibition at 10 µM [10]: 6% | inhibition at 10 µM [11]: 26% | inhibition at 10 µM [12]: 13% | inhibition at 10 µM [13]: 27% | EC50 ([14]; cloned rat channels): 0.41 µM | fold more potent on TASK-1 or heteromultimers of TASK-1 and TASK-3 than on TASK-3 ([14]; rat channels): 90 fold | EC50 [15]: 9 µM | EC50 [16]: 37 µM
